≈ marks a conversion by molar mass, not a printed value.
Columns and labels:
Aorta [1] = experiment: Vasodilatory activity in Sprague-Dawley rat thoracic aorta smooth muscle assessed as inhibition of phenylephrine-induced vasoconstriction; format: functional, tissue-based
Aorta [2] = experiment: Vasodilatory activity in Sprague-Dawley rat thoracic aorta smooth muscle assessed as inhibition of KCL-induced vasoconstriction; format: functional, tissue-based
SW480 = experiment: Cytotoxicity against human SW480 cells after 48 hrs by MTT assay; format: functional, cell-based; conditions: SW480, 48 h
HL-60 = experiment: Cytotoxicity against human HL60 cells after 48 hrs by MTT assay; format: functional, cell-based; conditions: HL-60, 48 h

Row | Compound | IC50 (Aorta [1]) | IC50 (Aorta [2]) | IC50 (SW480) | IC50 (HL-60)
1 | CC[C@@H]1CN2CCc3c([nH]c4ccccc34)[C@@H]2C[C@@H]1/C(=C/OC)C(=O)OC [CORYNANTHEIDINE] | > 30 µg/mL | > 30 µg/mL | 23.3 µM | 14 µM
2 | CC[C@@H]1CN2CC[C@]3(C(=O)Nc4ccccc43)[C@@H]2C[C@@H]1/C(=C\OC)C(=O)OC [CORYNOXINE B] | > 30 µg/mL | > 30 µg/mL | > 40 µM | > 40 µM
3 | CC[C@@H]1CN2CC[C@@]3(C(=O)Nc4ccccc43)[C@@H]2C[C@@H]1/C(=C\OC)C(=O)OC [CORYNOXINE] | > 30 µg/mL | > 30 µg/mL | > 40 µM | > 40 µM
4 | CC[C@H]1CN2CCc3c([nH]c4ccccc34)[C@@H]2C[C@@H]1/C(=C/OC)C(=O)OC [DIHYDROCORYNANTHEINE] | 21.8 µg/mL (≈ 59.2 µM) | 6.73 µg/mL (≈ 18.3 µM) | > 40 µM | > 40 µM
5 | CC[C@H]1CN2CC[C@@]3(C(=O)Nc4ccccc43)[C@@H]2C[C@@H]1/C(=C\OC)C(=O)OC [ISORHYNCHOPHYLLINE] | 18.4 µg/mL (≈ 47.9 µM) | > 30 µg/mL | > 40 µM | > 40 µM
6 | CC[C@@H]1[C@@H](/C(=C/OC)C(=O)OC)C[C@@H]2N(CC[C@]23C(=O)Nc2ccccc23)[C@H]1CC(C)=O [MACROPHYLLINE A] | 15.9 µg/mL (≈ 36 µM) | > 30 µg/mL | > 40 µM | > 40 µM
7 | CC[C@@H]1[C@@H](/C(=C/OC)C(=O)OC)C[C@@H]2N(CC[C@@]23C(=O)Nc2ccccc23)[C@H]1CC(C)=O [MACROPHYLLINE B] | > 30 µg/mL | > 30 µg/mL | > 40 µM | > 40 µM
8 | CC[C@H]1C[N@@+]2(C)CC[C@]3(C([O-])=Nc4ccccc43)[C@H]2C[C@@H]1/C(=C/OC)C(=O)OC [MACROPHYLLIONIUM] | > 30 µg/mL | > 30 µg/mL | > 40 µM | > 40 µM
9 | CC[C@H]1CN2CC[C@]3(C(=O)Nc4ccccc43)[C@@H]2C[C@@H]1/C(=C\OC)C(=O)OC [RHYNCHOPHYLLINE] | > 30 µg/mL | > 30 µg/mL | > 40 µM | > 40 µM
10 | COc1ccc(CCN(C)CCCC(C#N)(c2ccc(OC)c(OC)c2)C(C)C)cc1OC (stereo not drawn) [VERAPAMIL] | 0.32 µg/mL (≈ 0.704 µM) | 1.41 µg/mL (≈ 3.1 µM) | – | –

Source: ChEMBL document CHEMBL1667726, “Macrophyllionium and macrophyllines A and B, oxindole alkaloids from Uncaria macrophylla” (J Nat Prod, 2011)
